What was measured:
[1] = AUC in BALB/c mouse at 8.2 mg/kg, iv; assay type: ADME, organism-based; set-up: dose 8.2 mg/kg, route intravenous; conditions: plasma
[2] = Half life in BALB/c mouse at 8.2 mg/kg, iv; assay type: ADME, organism-based; set-up: dose 8.2 mg/kg, route intravenous; conditions: in vivo
[3] = Clearance in BALB/c mouse at 8.2 mg/kg, iv; assay type: ADME, organism-based; set-up: dose 8.2 mg/kg, route intravenous; conditions: in vivo
Cytochrome P450 2C9 = Cytochrome P450 2C9 (Homo sapiens, UniProt P11712); assay: Inhibition of CYP2C9 (unknown origin); assay type: ADME
[4] = Intrinsic clearance in mouse hepatocytes; assay type: ADME, cell-based, Hepatocyte; conditions: read-out: CLH
[5] = Intrinsic clearance in rat hepatocytes; assay type: ADME, cell-based, Hepatocyte; conditions: read-out: CLH
[6] = Plasma protein binding in mouse; assay type: ADME; conditions: read-out: PPB (converted)
[7] = Plasma protein binding in human; assay type: ADME, cell-free; conditions: read-out: PPB (converted)
[8] = Plasma protein binding in rat; assay type: ADME, cell-free; conditions: read-out: PPB (converted)
[9] = target: Serine/threonine-protein kinase pim-1 (Mus musculus) (UniProt P06803); assay: Inhibition of PIM1 in mouse BA/F3 cells assessed as phosphorylation of 4EBP1 at T37/T46 after 24 hrs by Western blotting analysis; assay type: cell-based; conditions: BaF3
RPMI-8226 = assay: Cytotoxicity against human RPMI8226 cells after 72 hrs by CellTitre-Glo assay; assay type: functional, cell-based; conditions: RPMI-8226, 72 h
[10] = Cytotoxicity against human KMS11 cells after 72 hrs by CellTitre-Glo assay; assay type: functional, cell-based; conditions: KMS-11, 72 h
[11] = Cytotoxicity against human NCI-H929 cells after 72 hrs by CellTitre-Glo assay; assay type: functional, cell-based; conditions: NCI-H929, 72 h
LP-1 = assay: Cytotoxicity against human LP-1 cells after 72 hrs by CellTitre-Glo assay; assay type: functional, cell-based; conditions: LP-1, 72 h
[12] = Apparent permeability from apical to basolateral side in human Caco2 cells after 120 mins by LC-MS/MS analysis; conditions: Caco-2
[13] = target: Serine/threonine-protein kinase pim-3 (Homo sapiens, UniProt Q86V86); assay: Inhibition of human PIM3 using ARK-RERTYSFGHHA as substrate incubated for 60 mins prior to substrate addition by topcount scintillation counting analysis in presence of [P33gamma]-ATP
[14] = target: Vascular endothelial growth factor receptor 2 (Homo sapiens, UniProt P35968); assay: Inhibition of VEGFR2 (unknown origin)
[15] = target: Tyrosine-protein kinase SYK (Homo sapiens, UniProt P43405); assay: Inhibition of Syk (unknown origin)
[16] = target: High affinity nerve growth factor receptor (Homo sapiens, UniProt P04629); assay: Inhibition of TRKA (unknown origin)
[17] = target: Proto-oncogene tyrosine-protein kinase receptor Ret (Homo sapiens, UniProt P07949); assay: Inhibition of RET (unknown origin)
[18] = target: Proto-oncogene tyrosine-protein kinase ROS (Homo sapiens, UniProt P08922); assay: Inhibition of ROS1 (unknown origin)
[19] = target: Protein kinase C beta type (Homo sapiens, UniProt P05771); assay: Inhibition of PKC-beta (unknown origin)
[20] = target: Serine/threonine-protein kinase PLK1 (Homo sapiens, UniProt P53350); assay: Inhibition of PLK1 (unknown origin)
[21] = target: Eukaryotic translation initiation factor 2-alpha kinase 3 (Homo sapiens, UniProt Q9NZJ5); assay: Inhibition of PERK (unknown origin)
[22] = Inhibition of PKA-alpha (unknown origin); set-up: species or system Homo sapiens
[23] = target: Serine/threonine-protein kinase PAK 4 (Homo sapiens, UniProt O96013); assay: Inhibition of PAK4 (unknown origin)
[24] = target: Serine/threonine-protein kinase NIM1 (Homo sapiens, UniProt Q8IY84); assay: Inhibition of NIM1 (unknown origin)
[25] = target: Mitogen-activated protein kinase 14 (Homo sapiens, UniProt Q16539); assay: Inhibition of P38alpha (unknown origin)
[26] = target: Serine/threonine-protein kinase Nek6 (Homo sapiens, UniProt Q9HC98); assay: Inhibition of NEK6 (unknown origin)
[27] = target: Maternal embryonic leucine zipper kinase (Homo sapiens, UniProt Q14680); assay: Inhibition of MELK (unknown origin)
[28] = target: Hepatocyte growth factor receptor (Homo sapiens, UniProt P08581); assay: Inhibition of c-MET (unknown origin)
[29] = target: Tyrosine-protein kinase Lyn (Homo sapiens, UniProt P07948); assay: Inhibition of LYN (unknown origin)
[30] = target: Tyrosine-protein kinase JAK3 (Homo sapiens, UniProt P52333); assay: Inhibition of JAK3 (unknown origin)
[31] = target: Mast/stem cell growth factor receptor Kit (Homo sapiens, UniProt P10721); assay: Inhibition of KIT (unknown origin)
[32] = target: Tyrosine-protein kinase JAK1 (Homo sapiens, UniProt P23458); assay: Inhibition of JAK1 (unknown origin)
[33] = target: Tyrosine-protein kinase JAK2 (Homo sapiens, UniProt O60674); assay: Inhibition of JAK2 (unknown origin)
[34] = target: Inhibitor of nuclear factor kappa-B kinase subunit beta (Homo sapiens, UniProt O14920); assay: Inhibition of IKK2 (unknown origin)
[35] = target: Glycogen synthase kinase-3 beta (Homo sapiens, UniProt P49841); assay: Inhibition of GSK3beta (unknown origin)
[36] = target: Fibroblast growth factor receptor 1 (Homo sapiens, UniProt P11362); assay: Inhibition of FGFR1 (unknown origin)
Ephrin type-A receptor 2 = Ephrin type-A receptor 2 (Homo sapiens, UniProt P29317); assay: Inhibition of EphA2 (unknown origin)
[37] = target: Mitogen-activated protein kinase 1 (Homo sapiens, UniProt P28482); assay: Inhibition of ERK2 (unknown origin)
[38] = target: Epidermal growth factor receptor (Homo sapiens, UniProt P00533); assay: Inhibition of EGFR1 (unknown origin)
[39] = target: Eukaryotic elongation factor 2 kinase (Homo sapiens, UniProt O00418); assay: Inhibition of EEF2K (unknown origin)
[40] = target: Serine/threonine-protein kinase Chk1 (Homo sapiens, UniProt O14757); assay: Inhibition of CHK1 (unknown origin)
[41] = Inhibition of CDK2/CYCA (unknown origin); set-up: species or system Homo sapiens
[42] = target: Protein-tyrosine kinase 6 (Homo sapiens, UniProt Q13882); assay: Inhibition of BRK (unknown origin)
Aurora kinase B = Aurora kinase B (Homo sapiens, UniProt Q96GD4); assay: Inhibition of aurora kinase 2 (unknown origin)
[43] = target: Mitotic checkpoint serine/threonine-protein kinase BUB1 (Homo sapiens, UniProt O43683); assay: Inhibition of BUB1 (unknown origin)
Aurora kinase A = Aurora kinase A (Homo sapiens, UniProt O14965); assay: Inhibition of aurora kinase 1 (unknown origin)
Activated CDC42 kinase 1 = Activated CDC42 kinase 1 (Homo sapiens, UniProt Q07912); assay: Inhibition of ACK1 (unknown origin)
[44] = target: Serine/threonine-protein kinase pim-1 (Homo sapiens, UniProt P11309); assay: Inhibition of human PIM1 using ARK-RERTYSFGHHA as substrate incubated for 60 mins prior to substrate addition by topcount scintillation counting analysis in presence of [P33gamma]-ATP
[45] = Half life in BALB/c mouse at 8.2 mg/kg, po; assay type: ADME, organism-based; set-up: dose 8.2 mg/kg, route oral; conditions: in vivo

Cytochrome P450 2C9, sequence (P11712 whole entry): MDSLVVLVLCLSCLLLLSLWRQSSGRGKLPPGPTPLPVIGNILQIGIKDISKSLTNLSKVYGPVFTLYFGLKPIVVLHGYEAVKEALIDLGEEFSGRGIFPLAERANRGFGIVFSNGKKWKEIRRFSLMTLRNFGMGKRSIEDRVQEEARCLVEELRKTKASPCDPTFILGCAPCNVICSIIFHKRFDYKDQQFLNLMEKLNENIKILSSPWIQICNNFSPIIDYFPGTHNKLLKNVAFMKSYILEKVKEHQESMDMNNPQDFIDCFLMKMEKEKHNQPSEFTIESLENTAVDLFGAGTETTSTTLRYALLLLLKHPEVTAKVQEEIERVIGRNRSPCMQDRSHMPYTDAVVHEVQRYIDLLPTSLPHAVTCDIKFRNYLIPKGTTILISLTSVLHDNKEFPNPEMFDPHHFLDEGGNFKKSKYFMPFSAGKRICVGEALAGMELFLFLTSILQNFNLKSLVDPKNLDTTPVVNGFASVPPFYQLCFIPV
Aurora kinase A, sequence (O14965 whole entry): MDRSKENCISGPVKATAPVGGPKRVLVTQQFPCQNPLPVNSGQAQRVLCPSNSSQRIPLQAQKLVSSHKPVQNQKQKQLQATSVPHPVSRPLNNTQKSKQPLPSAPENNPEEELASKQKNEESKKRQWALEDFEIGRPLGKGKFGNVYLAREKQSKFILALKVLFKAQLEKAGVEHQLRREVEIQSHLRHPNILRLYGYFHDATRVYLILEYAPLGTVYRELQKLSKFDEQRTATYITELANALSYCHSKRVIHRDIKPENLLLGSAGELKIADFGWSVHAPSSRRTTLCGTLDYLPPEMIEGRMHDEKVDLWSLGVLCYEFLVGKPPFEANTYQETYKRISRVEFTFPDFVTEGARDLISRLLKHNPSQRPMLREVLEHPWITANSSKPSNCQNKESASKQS
Serine/threonine-protein kinase pim-1, sequence (P11309 whole entry): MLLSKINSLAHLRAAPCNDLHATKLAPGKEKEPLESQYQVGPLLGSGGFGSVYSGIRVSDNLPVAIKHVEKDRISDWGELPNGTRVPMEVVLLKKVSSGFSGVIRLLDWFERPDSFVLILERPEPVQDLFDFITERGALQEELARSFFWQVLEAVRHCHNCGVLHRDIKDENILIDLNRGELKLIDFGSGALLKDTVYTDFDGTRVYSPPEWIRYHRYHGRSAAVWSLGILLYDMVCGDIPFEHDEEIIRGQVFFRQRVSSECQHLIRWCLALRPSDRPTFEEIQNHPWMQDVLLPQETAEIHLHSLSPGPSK
Inhibitor of nuclear factor kappa-B kinase subunit beta, sequence (O14920 whole entry): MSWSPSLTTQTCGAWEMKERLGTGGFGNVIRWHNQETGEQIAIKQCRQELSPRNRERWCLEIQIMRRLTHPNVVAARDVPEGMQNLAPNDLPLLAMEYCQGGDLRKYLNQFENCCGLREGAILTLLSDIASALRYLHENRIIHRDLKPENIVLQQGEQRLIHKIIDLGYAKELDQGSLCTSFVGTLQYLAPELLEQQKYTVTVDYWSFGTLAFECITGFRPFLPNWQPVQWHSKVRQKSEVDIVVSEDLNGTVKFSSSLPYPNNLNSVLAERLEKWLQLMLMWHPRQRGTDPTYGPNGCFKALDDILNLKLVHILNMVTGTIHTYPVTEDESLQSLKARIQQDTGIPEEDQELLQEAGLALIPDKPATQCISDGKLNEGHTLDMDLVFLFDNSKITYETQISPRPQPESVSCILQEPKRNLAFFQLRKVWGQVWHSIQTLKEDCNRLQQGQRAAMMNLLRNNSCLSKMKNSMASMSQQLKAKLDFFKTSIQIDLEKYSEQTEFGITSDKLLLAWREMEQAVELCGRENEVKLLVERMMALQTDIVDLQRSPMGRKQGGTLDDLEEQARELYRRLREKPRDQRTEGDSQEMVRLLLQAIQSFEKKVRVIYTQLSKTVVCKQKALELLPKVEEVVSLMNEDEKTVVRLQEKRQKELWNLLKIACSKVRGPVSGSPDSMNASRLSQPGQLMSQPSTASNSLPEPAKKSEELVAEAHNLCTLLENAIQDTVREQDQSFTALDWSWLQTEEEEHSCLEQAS
Mitogen-activated protein kinase 1, sequence (P28482 whole entry): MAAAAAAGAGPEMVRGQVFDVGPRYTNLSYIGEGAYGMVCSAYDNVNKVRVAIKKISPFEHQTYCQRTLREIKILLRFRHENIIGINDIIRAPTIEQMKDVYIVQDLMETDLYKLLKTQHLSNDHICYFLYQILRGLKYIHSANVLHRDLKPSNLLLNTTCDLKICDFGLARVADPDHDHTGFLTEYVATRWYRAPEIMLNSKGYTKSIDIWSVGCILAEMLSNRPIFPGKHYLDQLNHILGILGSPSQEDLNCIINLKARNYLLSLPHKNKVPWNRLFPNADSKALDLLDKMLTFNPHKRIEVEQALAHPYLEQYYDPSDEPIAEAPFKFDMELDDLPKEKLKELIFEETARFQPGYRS
Serine/threonine-protein kinase pim-1 (Mus musculus), sequence (P06803 whole entry, looked up): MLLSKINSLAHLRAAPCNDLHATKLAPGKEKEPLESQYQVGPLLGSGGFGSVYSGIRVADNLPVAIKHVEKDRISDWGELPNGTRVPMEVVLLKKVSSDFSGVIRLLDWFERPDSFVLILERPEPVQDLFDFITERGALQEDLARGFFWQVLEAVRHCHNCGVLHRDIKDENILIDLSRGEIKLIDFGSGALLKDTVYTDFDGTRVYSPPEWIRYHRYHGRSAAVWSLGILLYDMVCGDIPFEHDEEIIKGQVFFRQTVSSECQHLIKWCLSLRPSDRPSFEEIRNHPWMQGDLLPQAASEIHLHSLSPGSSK
Tyrosine-protein kinase JAK1, sequence (P23458 whole entry): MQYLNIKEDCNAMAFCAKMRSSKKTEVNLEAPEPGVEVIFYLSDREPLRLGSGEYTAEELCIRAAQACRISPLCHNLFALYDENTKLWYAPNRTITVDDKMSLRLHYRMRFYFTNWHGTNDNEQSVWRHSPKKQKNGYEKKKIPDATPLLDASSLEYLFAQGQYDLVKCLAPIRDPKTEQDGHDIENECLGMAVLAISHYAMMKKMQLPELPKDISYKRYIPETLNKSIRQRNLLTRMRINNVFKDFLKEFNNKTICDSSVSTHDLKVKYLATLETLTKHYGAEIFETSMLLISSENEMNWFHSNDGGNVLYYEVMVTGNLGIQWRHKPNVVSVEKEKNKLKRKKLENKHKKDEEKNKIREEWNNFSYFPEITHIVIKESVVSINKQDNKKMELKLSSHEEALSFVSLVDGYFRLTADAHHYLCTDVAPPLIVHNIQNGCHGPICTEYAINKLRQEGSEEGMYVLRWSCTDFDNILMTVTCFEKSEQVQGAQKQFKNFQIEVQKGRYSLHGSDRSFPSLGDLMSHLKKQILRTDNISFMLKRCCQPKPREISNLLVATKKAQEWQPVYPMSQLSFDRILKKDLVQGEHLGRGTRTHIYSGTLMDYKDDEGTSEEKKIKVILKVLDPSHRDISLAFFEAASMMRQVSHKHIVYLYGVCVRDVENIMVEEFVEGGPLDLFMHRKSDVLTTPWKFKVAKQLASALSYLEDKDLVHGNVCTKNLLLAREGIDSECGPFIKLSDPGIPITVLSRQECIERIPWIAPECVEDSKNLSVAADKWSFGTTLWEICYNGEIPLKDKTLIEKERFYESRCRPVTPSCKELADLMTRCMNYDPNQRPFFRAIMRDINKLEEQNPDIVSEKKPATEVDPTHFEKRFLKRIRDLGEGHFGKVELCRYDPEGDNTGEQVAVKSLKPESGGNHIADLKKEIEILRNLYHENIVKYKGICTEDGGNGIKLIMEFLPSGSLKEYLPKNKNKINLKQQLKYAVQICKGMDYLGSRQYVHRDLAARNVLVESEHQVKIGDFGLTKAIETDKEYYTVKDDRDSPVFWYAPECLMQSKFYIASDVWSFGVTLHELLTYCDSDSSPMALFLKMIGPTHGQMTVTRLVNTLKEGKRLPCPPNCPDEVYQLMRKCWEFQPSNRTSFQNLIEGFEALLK
Serine/threonine-protein kinase NIM1, sequence (Q8IY84 whole entry): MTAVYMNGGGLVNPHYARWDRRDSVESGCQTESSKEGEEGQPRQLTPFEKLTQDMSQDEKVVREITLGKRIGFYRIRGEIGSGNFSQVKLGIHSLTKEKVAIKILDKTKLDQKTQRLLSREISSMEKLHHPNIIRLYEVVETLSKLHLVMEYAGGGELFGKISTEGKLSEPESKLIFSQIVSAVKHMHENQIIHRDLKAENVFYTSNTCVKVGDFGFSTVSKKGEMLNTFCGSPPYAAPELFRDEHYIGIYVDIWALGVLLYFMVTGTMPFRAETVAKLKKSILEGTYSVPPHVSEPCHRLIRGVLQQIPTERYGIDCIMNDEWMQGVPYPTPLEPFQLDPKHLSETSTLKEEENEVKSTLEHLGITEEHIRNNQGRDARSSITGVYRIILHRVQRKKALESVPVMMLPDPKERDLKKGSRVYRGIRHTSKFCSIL
Mitogen-activated protein kinase 14, sequence (Q16539 whole entry): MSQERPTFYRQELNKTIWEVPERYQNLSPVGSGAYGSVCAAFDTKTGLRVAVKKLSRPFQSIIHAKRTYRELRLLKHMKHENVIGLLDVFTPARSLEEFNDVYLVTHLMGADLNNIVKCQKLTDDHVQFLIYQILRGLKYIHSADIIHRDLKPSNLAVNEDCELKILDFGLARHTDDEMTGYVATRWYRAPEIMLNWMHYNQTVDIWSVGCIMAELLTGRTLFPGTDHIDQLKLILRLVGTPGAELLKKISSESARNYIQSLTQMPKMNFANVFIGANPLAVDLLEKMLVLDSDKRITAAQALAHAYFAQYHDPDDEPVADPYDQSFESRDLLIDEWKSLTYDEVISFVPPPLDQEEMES
Serine/threonine-protein kinase Nek6, sequence (Q9HC98 whole entry): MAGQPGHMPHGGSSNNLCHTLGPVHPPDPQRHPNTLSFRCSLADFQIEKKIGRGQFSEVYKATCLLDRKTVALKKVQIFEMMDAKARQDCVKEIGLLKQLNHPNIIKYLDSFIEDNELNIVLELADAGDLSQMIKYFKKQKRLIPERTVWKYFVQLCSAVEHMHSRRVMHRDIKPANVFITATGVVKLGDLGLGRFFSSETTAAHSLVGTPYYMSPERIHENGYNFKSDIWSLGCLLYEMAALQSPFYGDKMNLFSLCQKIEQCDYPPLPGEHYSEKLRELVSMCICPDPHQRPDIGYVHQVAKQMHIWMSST

CN1CCN(C[C@@H](NC(=O)C[C@H]2CNC(=O)c3cc(-c4cccc(Cl)c4)cn32)C2CCCCC2)CC1
AUC [1]: 8.75 µM·h | half-life [2]: 13.6 h | clearance [3]: 28 mL/min/kg | IC50 (Cytochrome P450 2C9): > 10 µM | CLint scaled [4]: 63 mL/min/kg | CLint scaled [5]: 21 mL/min/kg | fraction unbound [6]: 0.02 | fraction unbound [7]: 0.03 | fraction unbound [8]: 0.036 | inhibition [9]: Dose-dependent effect | IC50 (RPMI-8226): 6.66 µM | IC50 [10]: 7.13 µM | IC50 [11]: 5.93 µM | IC50 (LP-1): 1.93 µM | Papp A→B at 2 h [12]: 8.4 ×10⁻⁶ cm/s | IC50 [13]: 0.012 µM | IC50 [14]: > 10 µM | IC50 [15]: > 10 µM | IC50 [16]: > 10 µM | IC50 [17]: > 10 µM | IC50 [18]: > 10 µM | IC50 [19]: > 10 µM | IC50 [20]: > 10 µM | IC50 [21]: > 10 µM | IC50 [22]: > 10 µM | IC50 [23]: > 10 µM | IC50 [24]: > 10 µM | IC50 [25]: > 10 µM | IC50 [26]: > 10 µM | IC50 [27]: > 10 µM | IC50 [28]: > 10 µM | IC50 [29]: > 10 µM | IC50 [30]: > 10 µM | IC50 [31]: > 10 µM | IC50 [32]: > 10 µM | IC50 [33]: > 10 µM | IC50 [34]: > 10 µM | IC50 [35]: > 10 µM | IC50 [36]: > 10 µM | IC50 (Ephrin type-A receptor 2): > 10 µM | IC50 [37]: > 10 µM | IC50 [38]: > 10 µM | IC50 [39]: > 10 µM | IC50 [40]: > 10 µM | IC50 [41]: > 10 µM | IC50 [42]: > 10 µM | IC50 (Aurora kinase B): > 10 µM | IC50 [43]: > 10 µM | IC50 (Aurora kinase A): > 10 µM | IC50 (Activated CDC42 kinase 1): > 10 µM | IC50 [44]: 0.03 µM | half-life [45]: 1.25 h

Reference: ChEMBL document CHEMBL3297733, “Discovery and optimization of pyrrolo[1,2-a]pyrazinones leads to novel and selective inhibitors of PIM kinases” (Bioorg Med Chem, 2013)
